Measured values: ChEMBL document CHEMBL4706678, “Trivalent sulfonium compounds (TSCs): Tetrahydrothiophene-based amphiphiles exhibit similar antimicrobial activity to analogous ammonium-based amphiphiles” (Bioorg Med Chem Lett, 2021)

Key:
[1] = system: Enterococcus faecalis; assay: Antimicrobial activity against Enterococcus faecalis OG1RF assessed as inhibition of microbial growth; type: functional
[2] = system: Staphylococcus aureus; assay: microbe, parasite or virus in culture; type: functional; details: ATCC 33591
Description: Antimicrobial activity against hospital acquired methicillin-resistant Staphylococcus aureus ATCC 33591 assessed as inhibition of microbial growth

[3] = system: Erythrocyte; assay: Hemolytic activity against human RBC assessed as concentration required to cause >20% hemolysis; type: ADME, cell-based
[4] = system: Staphylococcus aureus; assay: Antimicrobial activity against methicillin-susceptible Staphylococcus aureus SH1000 assessed as inhibition of microbial growth; type: functional
[5] = system: Staphylococcus aureus; assay: Antimicrobial activity against community acquired methicillin-resistant Staphylococcus aureus USA300 assessed as inhibition of microbial growth; type: functional
[6] = system: Escherichia coli; assay: Antimicrobial activity against Escherichia coli MC4100 assessed as inhibition of microbial growth; type: functional
[7] = system: Pseudomonas aeruginosa; assay: Antimicrobial activity against Pseudomonas aeruginosa PAO1 assessed as inhibition of microbial growth; type: functional

Compound	MIC [1] [µM]	MIC [2] [µM]	HC20 [3] [µM]	MIC [4] [µM]	MIC [5] [µM]	MIC [6] [µM]	MIC [7] [µM]
CCCCCCCCCCCCCCCC[N+]1(C)CCCC1.[Br-]	> 250	8	16	4	2	125	> 250
C(CCCCC[S+]1CCCC1)CCCC[S+]1CCCC1.[I-].[I-]	> 250	> 250	125	250	250	> 250	> 250
CCCCCCCCCCCCCCCC[n+]1ccccc1.[Cl-]	–	–	8	–	–	–	–
CCCCCCCCCCCC[S+]1CCCC1.[I-]	> 250	125	125	16	16	> 250	> 250
C[N+]1(CCCCCCCC[N+]2(C)CCCC2)CCCC1.[Br-].[Br-]	> 250	> 250	125	> 250	> 250	> 250	> 250
C(CCCC[S+]1CCCC1)CCC[S+]1CCCC1.[I-].[I-]	> 250	> 250	125	> 250	> 250	> 250	> 250
C(CCCCCC[S+]1CCCC1)CCCCC[S+]1CCCC1.[I-].[I-]	> 250	> 250	250	250	250	> 250	> 250
C[N+]1(CCCCCCCCCC[N+]2(C)CCCC2)CCCC1.[Br-].[Br-]	> 250	> 250	125	> 250	> 250	> 250	> 250
CCCCCCCCCCC[N+]1(C)CCCC1.[Br-]	> 250	> 250	125	125	125	> 250	> 250
CCCCCCCCCCCCCCCC[S+]1CCCC1.[I-]	> 250	8	16	2	4	125	> 250
CCCCCCCCCCCCC[N+]1(C)CCCC1.[Br-]	> 250	63	63	8	16	> 250	> 250
CCCCCCCCCCCCCC[N+]1(C)CCCC1.[Br-]	> 250	16	32	4	8	250	> 250
CCCCCCCCCCCCC[S+]1CCCC1.[I-]	> 250	125	63	8	32	> 250	> 250
CCCCCCCC[N+]1(C)CCCC1.[Br-]	> 250	> 250	125	> 250	> 250	> 250	> 250
CCCCCCCC[S+]1CCCC1.[I-]	> 250	> 250	125	> 250	> 250	> 250	> 250
CCCCCCCCCC[N+]1(C)CCCC1.[Br-]	> 250	> 250	250	> 250	> 250	> 250	> 250
CCCCCCCCCCCCCC[S+]1CCCC1.[I-]	> 250	32	16	4	4	250	> 250
C[N+]1(CCCCCCCCCCCC[N+]2(C)CCCC2)CCCC1.[Br-].[Br-]	> 250	> 250	125	> 250	> 250	> 250	> 250
CCCCCCCCCCCC[N+]1(C)CCCC1.[Br-]	> 250	125	125	32	32	> 250	> 250
CCCCCCCCCC[S+]1CCCC1.[I-]	> 250	> 250	125	250	250	> 250	> 250
CCCCCCCCCCCCCCCCCC[S+]1CCCC1.[I-]	> 250	8	16	1	4	63	250
CCCCCCCCCCCCCCCCCC[N+]1(C)CCCC1.[Br-]	> 250	8	16	2	4	63	250
CCCCCCCCCCC[S+]1CCCC1.[I-]	> 250	250	125	125	250	> 250	> 250
